Results from patent publication US5556744A, “Methods and compositions for diagnosing and treating certain HIV infected patients” (The Trustees of the University of Pennsylvania, priority 1994, dated 1996).

Test system: maternal HIV+ sera (antibodies)
Test: RIA / ELISA binding of maternal HIV+ sera to gp120 and gp41 peptides (Example 3)
Parameters: species or system human
Description: Radioimmunoassay (RIA) and enzyme-linked immunosorbent assay (ELISA) were performed by standard methodologies [E. Engvall, Meth. Immunol., 70:419-439 (1980); S. K. Pierce et al, J. Exp. Med., 144:1254-1262 (1976)]. Peptides were dissolved in 0.05M carbonate-bicarbonate buffer (pH 9.6) at a concentration of 10 μg/ml. Fifty μl (500 ng) of the peptides were immobilized in 96 well polyvinylchloride plates (Dynatech Laboratories, Inc.) overnight at 4° C. Plates were washed and non-specific sites were blocked with PBS containing 1% BSA overnight at 4° C.
Dilutions of HIV positive maternal sera were made in blocking buffer at dilutions of 1:50 and 1:500 and incubated in peptide coated plates overnight at 4° C. Plates were washed with PBS and incubated with 75,000 cpm of ^125 I-labelled goat anti-human IgG. The antibody was iodinated by a chloramine T method [W. V. Williams et al, Proc. Natl. Acad. Sci. USA, 85:6488-6492 (1988)]. Plates were washed, dried and counted in a gamma counter to measure specific binding. Normal human serum (i.e., HIV seronegative) was used as a control.
Alternatively, ELISA assays were performed in polystyrene plates (Dynatech Laboratories, Inc) in which 0.05% Tween 20 (Sigma Chemical Co.) was included in the washing, blocking and dilution buffers. The secondary antibody used was goat […] Ig conjugated to horseradish peroxidase (HRP) (Sigma Chemical Co). The substrate used for color development was 3,3',5,5' tetramethyl-benzidine dihydrochloride (TMB) (Sigma Chemical Co). Absorbance of samples was measured in a Dynatech MR5000 (Dynatech Laboratories, Inc.) plate reader and expressed as an optical density at wavelength of 450 nm (OD450).
The following key is used for the designation of specific binding of the maternal sera samples to the peptides: The minus sign, -, is equivalent to the specific OD450 or cpm of sera sample binding to peptide divided by the specific OD450 or cpm of NHS sample binding to peptide, which value is less than 2. The plus sign, +, is equivalent to the specific OD450 or cpm of sera sample binding to peptide divided by the specific OD450 or cpm of NHS sample binding to peptide, which value is between 2 to 3.
Specific binding is defined as the difference between the OD450 or cpm of sera to wells with peptide and the OD450 or cpm of sera to wells without peptide.
Comparisons of number of peptides which bound maternal serum samples were made between the transmission group and the nontransmission group. The data was analyzed using the unpaired student's test. For the determination of differences in the binding of specific peptides between transmission and non-transmission groups, the Spearman's rank-order correlation test was performed.

[1] = Serum No. 1, Non-Transmission Group
[2] = Serum No. 2, Non-Transmission Group
[3] = Serum No. 3, Non-Transmission Group
[4] = Serum No. 4, Transmission Group
[5] = Serum No. 5, Transmission Group
[6] = Serum No. 6, Non-Transmission Group
[7] = Serum No. 7, Non-Transmission Group
[8] = Serum No. 8, Non-Transmission Group
[9] = Serum No. 9, Non-Transmission Group
[10] = Serum No. 10, Transmission Group
[11] = Serum No. 11, Non-Transmission Group
[12] = Serum No. 12, Non-Transmission Group
[13] = Serum No. 13, Transmission Group
[14] = Serum No. 14, Transmission Group
[15] = Serum No. 15, Transmission Group
[16] = Serum No. 16, Non-Transmission Group
[17] = Serum No. 17, Non-Transmission Group
[18] = Serum No. 18, Non-Transmission Group
[19] = Serum No. 19, Transmission Group
[20] = Serum No. 20, Non-Transmission Group

Row | Sequence | Binding of maternal HIV+ serum to peptide (sera/NHS ratio) [1] | Binding of maternal HIV+ serum to peptide (sera/NHS ratio) [2] | Binding of maternal HIV+ serum to peptide (sera/NHS ratio) [3] | Binding of maternal HIV+ serum to peptide (sera/NHS ratio) [4] | Binding of maternal HIV+ serum to peptide (sera/NHS ratio) [5] | Binding of maternal HIV+ serum to peptide (sera/NHS ratio) [6] | Binding of maternal HIV+ serum to peptide (sera/NHS ratio) [7] | Binding of maternal HIV+ serum to peptide (sera/NHS ratio) [8] | Binding of maternal HIV+ serum to peptide (sera/NHS ratio) [9] | Binding of maternal HIV+ serum to peptide (sera/NHS ratio) [10] | Binding of maternal HIV+ serum to peptide (sera/NHS ratio) [11] | Binding of maternal HIV+ serum to peptide (sera/NHS ratio) [12] | Binding of maternal HIV+ serum to peptide (sera/NHS ratio) [13] | Binding of maternal HIV+ serum to peptide (sera/NHS ratio) [14] | Binding of maternal HIV+ serum to peptide (sera/NHS ratio) [15] | Binding of maternal HIV+ serum to peptide (sera/NHS ratio) [16] | Binding of maternal HIV+ serum to peptide (sera/NHS ratio) [17] | Binding of maternal HIV+ serum to peptide (sera/NHS ratio) [18] | Binding of maternal HIV+ serum to peptide (sera/NHS ratio) [19] | Binding of maternal HIV+ serum to peptide (sera/NHS ratio) [20] | other results
1 | YDTEVHNVWATHACV [Peptide 94] | ++ (which value is greater than 3) | - (specific OD450 or cpm of sera sample binding to peptide divided by the specific OD450 or cpm of NHS sample binding to peptide, which value is less than 2) | ++ (which value is greater than 3) | - (specific OD450 or cpm of sera sample binding to peptide divided by the specific OD450 or cpm of NHS sample binding to peptide, which value is less than 2) | - (specific OD450 or cpm of sera sample binding to peptide divided by the specific OD450 or cpm of NHS sample binding to peptide, which value is less than 2) | - (specific OD450 or cpm of sera sample binding to peptide divided by the specific OD450 or cpm of NHS sample binding to peptide, which value is less than 2) | - (specific OD450 or cpm of sera sample binding to peptide divided by the specific OD450 or cpm of NHS sample binding to peptide, which value is less than 2) | - (specific OD450 or cpm of sera sample binding to peptide divided by the specific OD450 or cpm of NHS sample binding to peptide, which value is less than 2) | - (specific OD450 or cpm of sera sample binding to peptide divided by the specific OD450 or cpm of NHS sample binding to peptide, which value is less than 2) | - (specific OD450 or cpm of sera sample binding to peptide divided by the specific OD450 or cpm of NHS sample binding to peptide, which value is less than 2) | - (specific OD450 or cpm of sera sample binding to peptide divided by the specific OD450 or cpm of NHS sample binding to peptide, which value is less than 2) | - (specific OD450 or cpm of sera sample binding to peptide divided by the specific OD450 or cpm of NHS sample binding to peptide, which value is less than 2) | - (specific OD450 or cpm of sera sample binding to peptide divided by the specific OD450 or cpm of NHS sample binding to peptide, which value is less than 2) | - (specific OD450 or cpm of sera sample binding to peptide divided by the specific OD450 or cpm of NHS sample binding to peptide, which value is less than 2) | - (specific OD450 or cpm of sera sample binding to peptide divided by the specific OD450 or cpm of NHS sample binding to peptide, which value is less than 2) | - (specific OD450 or cpm of sera sample binding to peptide divided by the specific OD450 or cpm of NHS sample binding to peptide, which value is less than 2) | - (specific OD450 or cpm of sera sample binding to peptide divided by the specific OD450 or cpm of NHS sample binding to peptide, which value is less than 2) | - (specific OD450 or cpm of sera sample binding to peptide divided by the specific OD450 or cpm of NHS sample binding to peptide, which value is less than 2) | - (specific OD450 or cpm of sera sample binding to peptide divided by the specific OD450 or cpm of NHS sample binding to peptide, which value is less than 2) | - (specific OD450 or cpm of sera sample binding to peptide divided by the specific OD450 or cpm of NHS sample binding to peptide, which value is less than 2) | Number of maternal sera binding to peptide (20 maternal sera): two; Binding of maternal sera to peptide (in words) (Example 3): Several maternal serum samples had reactivity; Number of binding maternal sera from the transmission group (vertical transmission group (7 sera)): neither
2 | TRKSIRIQRGPGRAF [Peptide 107] | ++ (which value is greater than 3) | ++ (which value is greater than 3) | ++ (which value is greater than 3) | ++ (which value is greater than 3) | ++ (which value is greater than 3) | ++ (which value is greater than 3) | + (which value is between 2 to 3) | ++ (which value is greater than 3) | ++ (which value is greater than 3) | + (which value is between 2 to 3) | ++ (which value is greater than 3) | ++ (which value is greater than 3) | ++ (which value is greater than 3) | ++ (which value is greater than 3) | - (specific OD450 or cpm of sera sample binding to peptide divided by the specific OD450 or cpm of NHS sample binding to peptide, which value is less than 2) | ++ (which value is greater than 3) | ++ (which value is greater than 3) | ++ (which value is greater than 3) | ++ (which value is greater than 3) | ++ (which value is greater than 3) | Percentage of sera samples demonstrating binding to peptide, non-transmitter (Non-transmitter group, n = 13): 100%; Percentage of sera samples demonstrating binding to peptide, transmitter (Transmitter / transmission group, n = 7): 85.7%; Percent of the maternal serum samples that bound to the peptide (all 20 samples): 95%
